Test results taken from patent US8754038B2, “Template-fixed peptidomimetics with CCR10 antagonistic activity” (priority 2009, dated 2014).
Square brackets hold non-standard residues; d marks the D form. Peptide text beside a SMILES is read from it. * marks the point of attachment. Pro(cis-4-Ph) = O=C(O)[C@@H]1C[C@H](c2ccccc2)CN1; Phe(4-CF3) = N[C@@H](Cc1ccc(C(F)(F)F)cc1)C(=O)O; Pro(4R-Bn) = O=C(O)[C@@H]1C[C@@H](Cc2ccccc2)CN1; Trp(5-OH) = N[C@@H](Cc1c[nH]c2ccc(O)cc12)C(=O)O; Pro(cis-4-F) = O=C(O)[C@@H]1C[C@H](F)CN1; 2Nal = N[C@@H](Cc1ccc2ccccc2c1)C(=O)O; Thz(5,5-Me2) = CC1(C)SCN[C@@H]1C(=O)O; cisHyp = O=C(O)[C@@H]1C[C@H](O)CN1; Tic = O=C(O)[C@@H]1Cc2ccccc2CN1; Pip = O=C(O)[C@@H]1CCCCN1; dPip = O=C(O)[C@H]1CCCCN1; Thz = O=C(O)[C@@H]1CSCN1; Ac5c = NC1(C(=O)O)CCCC1; Dab = NCC[C@H](N)C(=O)O; Aib = CC(C)(N)C(=O)O; Bn = c1ccc(C*)cc1

Legend:
[1] = molecular target: T1, human CCR10 (Homo sapiens, UniProt P46092); assay: Chemotaxis assay (CCR10-transfected 300-19 cells, CCL27 gradient); type: cell-based; settings: CCR10-transfected 300-19 murine pre-B cells; 30 nM CCL27 gradient
T1 construct: expressed in transfected cells
T1 sequence (P46092 1-362): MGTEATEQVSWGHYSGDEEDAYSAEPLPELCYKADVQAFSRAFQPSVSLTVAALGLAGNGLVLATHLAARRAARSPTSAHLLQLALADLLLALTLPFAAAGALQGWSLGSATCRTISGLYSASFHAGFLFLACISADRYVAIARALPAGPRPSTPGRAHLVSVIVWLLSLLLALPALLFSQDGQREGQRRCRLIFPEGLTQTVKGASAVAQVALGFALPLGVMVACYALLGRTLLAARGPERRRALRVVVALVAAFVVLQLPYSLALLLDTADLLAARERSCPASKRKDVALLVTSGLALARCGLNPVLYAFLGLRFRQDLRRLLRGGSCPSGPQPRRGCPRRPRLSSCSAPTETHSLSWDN
Method: (§1) Lyophilized peptides were weighed on a Microbalance (Mettler MX5) and dissolved in aqueous 90% DMSO to a final concentration of 10 mM unless otherwise stated. Stock solutions were kept at +4° C., and protected from light.
(§2) Peptides were assayed for CCR10 antagonism in a calcium flux assay and in a chemotaxis assay using a mouse pre-B cell line 300-19 stably transfected with human CCR10, and with human CCL27 as agonist.
The chemotactic response of CCR10-transfected 300-19 murine pre-B cells to a gradient of CCL27 (CTACK) was measured using disposable Transwell® assay plates from Costar (5 μm pore size) according to the protocol of the manufacturer. Briefly, cells were grown under sterile conditions at 37° C. with 5% CO2 in flasks containing RPMI+5% FCS, glutamine, penicillin/streptomycin (all media components were from Life Technologies) and the appropriate selection antibiotics (Puromycin, G418 or Tetracycline). For the assay, cells were pelleted by centrifugation, washed once in Dulbecco's phosphate buffered saline (DPBS), and resuspended to give 1×10^6 cells/ml in RPMI+0.5% bovine serum albumin (BSA). 100 μl of cell suspension was applied to the top of the assay filter. The β-hairpin peptidomimetics, diluted in the same assay medium, were added to both top and bottom chambers. The cells were allowed to migrate for 4-6 hours at 37° C. into the bottom chamber of the assay plate containing 30 nM of CCL27 (RnD systems). Migrated cells were counted using a FACS cytometer (Cytomics FC500, Beckman Coulter). Data normalization was performed using the number of any cells that had migrated in the absence of the β-hairpin peptidomimetic and the number of cells that have randomly migrated in absence of CCL27 [these values were taken as 100% (no inhibitory activity) and 0%, respectively]. From a range of compound concentrations IC50 were determined using Prism5 (GraphPad software).

[2] = molecular target: T1, human CCR10; assay: Calcium flux assay (CCR10 antagonism, CCL27 as agonist); type: cell-based; settings: CCR10 transfected 300-19 murine pre-B cells; CCL27 30 nM
Method: as §1, §2
The calcium flux release was assessed using CCR10 transfected 300-19 murine pre-B cells. These cells were labeled as a batch with Calcium4 Reagent (Molecular Devices, Sunnyvale, Calif.) in HBSS buffer for 60 min.
After dispensing 8×10^4 cells in each well of a 384-well black plate, a concentrated solution of the β-hairpin peptidomimetics of this invention in HBSS+0.1% BSA+0.1% DMSO (final concentration) was added to the cells. The entire plate was centrifuged and placed in a Flexstation II (Molecular Devices) automated plate reader. After reading a 20 s baseline, the Flexstation dispensed CCL27 (RnD systems) at a final concentration of 30 nM in HBSS+0.1% BSA onto the cells and calcium flux was measured for an additional 70 s.
Alternatively a FIipR384 (Molecular Devices) was used for read out of the 384-well plates. In this case about 8×10^4 cells were placed in each well, centrifuged, placed in the FlipR and after 5 s of baseline reading, the β-hairpin peptidomimetics in HBSS+0.1% BSA+0.1% DMSO (final concentration) were added. After an incubation time of 5 min, the CCL27 solution was added to the mixture and the calcium flux was measured for 200 s.
The maximum signal was determined from control wells without inhibitor. Percentage of inhibition was calculated from a range of compound concentrations, which were subsequently used to calculate IC50 values (Softmax Pro, Molecular Devices). All steps were carried out at room temperature.

| SMILES | IC50 [1] [nM] | IC50 [2] [nM] |
| --- | --- | --- |
| CC1(C)NC(=O)[C@H](Cc2c[nH]c3ccccc23)NC(=O)[C@@H]2Cc3ccccc3CN2C(=O)[C@H]2CCCN2C(=O)[C@H](CCCNC(=N)N)NC(=O)[C@H](Cc2c[nH]c3ccccc23)NC1=O [Ex. 1, cyclo(-Trp-Aib-Trp-Arg-^DPro-Tic-)] (cyclo([Aib]WR[dP][Tic]W)) | 94 | 226 ± 187 |
| CC1(C)NC(=O)[C@H](Cc2c[nH]c3ccccc23)NC(=O)[C@@H]2Cc3ccccc3CN2C(=O)[C@H]2CCCN2C(=O)[C@H](CCN)NC(=O)[C@H](Cc2c[nH]c3ccccc23)NC1=O [Ex. 2, cyclo(-Trp-Aib-Trp-Dab-^DPro-Tic-)] (cyclo([Aib]W[Dab][dP][Tic]W)) | 21.6 | 200 ± 56.5 |
| NCC[C@@H]1NC(=O)[C@H](Cc2c[nH]c3ccccc23)NC(=O)C2(CCCC2)NC(=O)[C@H](Cc2c[nH]c3ccccc23)NC(=O)[C@@H]2C[C@H](F)CN2C(=O)[C@H]2CCCN2C1=O [Ex. 4, cyclo(-Trp-Cyp-Trp-Dab-^DPro-Pro((4S)F)—)] (cyclo([Ac5c]W[Dab][dP][Pro(cis-4-F)]W)) | 42 | 860 ± 382 |
| NC(=O)CC[C@@H]1NC(=O)[C@H](Cc2c[nH]c3ccccc23)NC(=O)C2(CCCC2)NC(=O)[C@H](Cc2c[nH]c3ccc(O)cc23)NC(=O)[C@@H]2CSCN2C(=O)[C@H]2CCCN2C1=O [Ex. 7, cyclo(-Trp(5OH)-Cyp-Trp-Gln-^DPro-Thz-)] (cyclo([Trp(5-OH)][Ac5c]WQ[dP][Thz])) | 3.1 | 144 ± 84.1 |
| NC(=O)CC[C@@H]1NC(=O)[C@H](Cc2c[nH]c3ccccc23)NC(=O)C2(CCCC2)NC(=O)[C@H](Cc2ccc3ccccc3c2)NC(=O)[C@@H]2Cc3ccccc3CN2C(=O)[C@H]2CCCN2C1=O [Ex. 9, cyclo(-2NaI-Cyp-Trp-Gln-^DPro-Tic-)] (cyclo([2Nal][Ac5c]WQ[dP][Tic])) | 2 | 9.2 ± 3.6 |
| NCC[C@@H]1NC(=O)[C@H](Cc2c[nH]c3ccccc23)NC(=O)C2(CCCC2)NC(=O)[C@H](Cc2ccc3ccccc3c2)NC(=O)[C@@H]2CCCCN2C(=O)[C@H]2CCCCN2C1=O [Ex. 10, cyclo(-2NaI-Cyp-Trp-Dab-^DPip-Pip-)] (cyclo([2Nal][Ac5c]W[Dab][dPip][Pip])) | 9.7 | 43.2 ± 44.9 |
| CC1(C)SCN2C(=O)[C@H]3CCCN3C(=O)[C@H](CCCNC(=N)N)NC(=O)[C@H](Cc3c[nH]c4ccccc34)NC(=O)C3(CCCC3)NC(=O)[C@H](Cc3c[nH]c4ccc(O)cc34)NC(=O)[C@@H]21 [Ex. 29, cyclo(-Trp(5OH)-Cyp-Trp-Arg-^DPro-Thz(5,5Me2)-)] (cyclo([Ac5c]WR[dP][Thz(5,5-Me2)][Trp(5-OH)])) | 109 | 214 ± 106 |
| NCC[C@@H]1NC(=O)[C@H](Cc2c[nH]c3ccccc23)NC(=O)C2(CCCC2)NC(=O)[C@H](Cc2ccc(C(F)(F)F)cc2)NC(=O)[C@@H]2C[C@H](c3ccccc3)CN2C(=O)[C@H]2CCCCN2C1=O [Ex. 37, cyclo(-Phe(4CF3)—Cyp-Trp-Dab-^DPip-Pro((4R)Ph)-)] (cyclo([Ac5c]W[Dab][dPip][Pro(cis-4-Ph)][Phe(4-CF3)])) | 22 | 14.8 ± 12 |
| NCC[C@@H]1NC(=O)[C@H](Cc2c[nH]c3ccccc23)NC(=O)C2(CCCC2)NC(=O)[C@H](Cc2c[nH]c3ccccc23)NC(=O)[C@@H]2C[C@@H](Cc3ccccc3)CN2C(=O)[C@H]2CCCN2C1=O [Ex. 38, cyclo(-Trp-Cyp-Trp-Dab-^DPro-Pro((4R)Bn)-)] (cyclo([Ac5c]W[Dab][dP][Pro(4R-Bn)]W)) | 2.3 | 26.1 ± 8.1 |
| NCC[C@@H]1NC(=O)[C@H](Cc2c[nH]c3ccccc23)NC(=O)C2(CCCC2)NC(=O)[C@H](Cc2c[nH]c3ccccc23)NC(=O)[C@@H]2C[C@H](OCc3ccccc3)CN2C(=O)[C@H]2CCCN2C1=O [Ex. 51, cyclo(-Trp-Cyp-Trp-Dab-^DPro-(4S)-Hyp(Bn)-)] (cyclo([Ac5c]W[Dab][dP][cisHyp](Bn)W)) | 60.1 | 260 ± 154 |
